Measurements from ChEMBL document CHEMBL1201862, “PubChem BioAssay data set” (2004).
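Grown in 96-well plates, cells were treated for 48 hours with each compound at five concentrations. Insufficient inhibition: endpoint recorded as highest concentration tested. GI50 = concentration required for 50% inhibition of growth.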 Activity calls are given as the source filed them. Cut-off read from the data, not from the text of the source: active = GI50 up to about 1.1 µM and inactive = higher.

Key:
Test in all cases: inhibition of tumour cell growth, NCI panel, 48 h
SNB-19 = system: SNB-19
NCI/ADR-RES = system: NCI/ADR-RES
CAKI-1 = system: CAKI-1
MDA-MB-231 = system: MDA-MB-231
K562 = system: K562
HCC 2998 = system: HCC 2998
HCT-116 = system: HCT-116
COLO 205 = system: COLO 205
T47D = system: T47D
OVCAR-5 = system: OVCAR-5
ACHN = system: ACHN
SK-MEL-2 = system: SK-MEL-2
MDA-MB-435 = system: MDA-MB-435
PC-3 = system: PC-3
DU-145 = system: DU-145
SNB-78 = system: SNB-78
HOP-18 = system: HOP-18
DMS-273 = system: DMS-273
LXFL 529 = system: LXFL 529
SR = system: SR

| SMILES | GI50 (SNB-19) | GI50 (NCI/ADR-RES) | GI50 (CAKI-1) | GI50 (MDA-MB-231) | GI50 (K562) | GI50 (HCC 2998) | GI50 (HCT-116) | GI50 (COLO 205) | GI50 (T47D) | GI50 (OVCAR-5) | GI50 (ACHN) | GI50 (SK-MEL-2) | GI50 (MDA-MB-435) | GI50 (PC-3) | GI50 (DU-145) | GI50 (SNB-78) | GI50 (HOP-18) | GI50 (DMS-273) | GI50 (LXFL 529) | GI50 (SR) |
| --- | --- | --- | --- | --- | --- | --- | --- | --- | --- | --- | --- | --- | --- | --- | --- | --- | --- | --- | --- | --- |
| N#CCCC1C(C#N)C2(Cl)CC1(Cl)C(Cl)=C2Cl (stereo not given) | > 10 µM (inactive) | > 10 µM (inactive) | > 10 µM (inactive) | > 10 µM (inactive) | > 10 µM (inactive) | > 10 µM (inactive) | > 10 µM (inactive) | > 10 µM (inactive) | > 10 µM (inactive) | > 10 µM (inactive) | > 10 µM (inactive) | > 10 µM (inactive) | > 10 µM (inactive) | > 10 µM (inactive) | > 10 µM (inactive) |  |  |  |  |  |
| CC1(C)CCc2cc3c(-c4ccccc4)cc(=O)oc3cc2O1 | 87.5 µM (inactive) |  | > 100 µM (inactive) |  | > 100 µM (inactive) |  |  | > 100 µM (inactive) |  |  | > 100 µM (inactive) | > 100 µM (inactive) |  |  |  | 85.7 µM (inactive) | 47.8 µM (inactive) | > 100 µM (inactive) | > 100 µM (inactive) |  |
| COC(c1ccc(C(C)(C)C)cc1)(c1ccc(C(C)(C)C)cc1)c1cc(C(O)(c2cc(C(OC)(c3ccc(C(C)(C)C)cc3)c3ccc(C(C)(C)C)cc3)c(C)cc2C)c2cc(C(OC)(c3ccc(C(C)(C)C)cc3)c3ccc(C(C)(C)C)cc3)c(C)cc2C)c(C)cc1C |  | > 100 µM (inactive) | > 100 µM (inactive) | > 100 µM (inactive) | > 100 µM (inactive) | > 100 µM (inactive) | > 100 µM (inactive) | > 100 µM (inactive) | > 100 µM (inactive) | > 100 µM (inactive) |  | > 100 µM (inactive) | > 100 µM (inactive) | > 100 µM (inactive) | > 100 µM (inactive) |  |  |  |  | > 100 µM (inactive) |
| CCOC(=O)c1csc(NC(=O)CN(C)C)n1 | > 100 µM (inactive) | > 100 µM (inactive) | > 100 µM (inactive) | > 100 µM (inactive) | > 100 µM (inactive) | > 100 µM (inactive) |  | > 100 µM (inactive) | > 100 µM (inactive) | > 100 µM (inactive) | > 100 µM (inactive) | > 100 µM (inactive) | > 100 µM (inactive) | > 100 µM (inactive) | > 100 µM (inactive) |  |  |  |  | > 100 µM (inactive) |
| O=c1c2ccccc2[nH]c2cc(O)cc(O)c12 | > 100 µM (inactive) |  |  |  | 66.4 µM (inactive) | 50.2 µM (inactive) | 55.6 µM (inactive) |  |  |  | 26.4 µM (inactive) | 81.7 µM (inactive) |  |  |  | > 100 µM (inactive) | > 100 µM (inactive) | 35.1 µM (inactive) | 39.3 µM (inactive) |  |
| CCOc1ccc(C(C)c2cc3c(cc2OC)OCO3)cc1 (stereo not given) | 0.561 µM (active) |  | 0.834 µM (active) |  |  | 0.466 µM (active) | 0.371 µM (active) |  |  | 65.5 µM (inactive) | 0.897 µM (active) |  |  |  |  | 3.2 µM (inactive) | 2.2 µM (inactive) | 0.245 µM (active) | 0.429 µM (active) | 0.0982 µM (active) |
